Molecules are shown by their SMILES.

As for `CN(C)CC#C[C@H]1CC[C@H](N(C)c2ncc(Br)cn2)CC1` [Example 2, trans-(5-Bromo-pyrimidin-2-yl)-[4-(3-dimethylamino-prop-1-ynyl)-cyclohexyl]-methyl-amine], the melting point – broadly, the temperature, or range, at which the solid turns liquid – was 83 to 84 °C (dec.).

Compound `CN(C)C[C@H]1CC[C@H](CCNc2ncc(Br)cn2)CC1` [Example 12, trans-(5-Bromo-pyrimidin-2-yl)-[2-(4-dimethylaminomethyl-cyclohexyl)-ethyl]-amine] displayed a melting point of 108.3 to 109.5 °C.

Regarding `CN(C)CC#C[C@H]1CC[C@H](CN(C)c2ncc(Br)cn2)CC1` [Example 16, trans-(5-Bromo-pyrimidin-2-yl)-[4-(3-dimethylamino-prop-1-ynyl)-cyclohexylmethyl]-methyl-amine], the melting point lay in the range of 71 to 72 °C.

As to `CCCc1cnc(N(C)C[C@H]2CC[C@H](C#CCN(C)C)CC2)nc1` [Example 23.1, trans-[4-(3-Dimethylamino-prop-1-ynyl)-cyclohexylmethyl]-methyl-(5-propyl-pyrimidin-2-yl)-amine], the melting point lay in the range of 49 to 50 °C.

(Values after patent US7012077B2, “Substituted cyclohexane derivatives” (Hoffmann-La Roche Inc., priority 2001, dated 2006).)
